Results: patent US20220170028A1, “NOVEL INTERLEUKIN-2 VARIANTS AND BIFUNCTIONAL FUSION MOLECULES THEREOF” (Cugene Inc, priority 2019, published 2022)

How the values were obtained:
[1] = system: CD4+ Tconv cells, CD8 T cells and NK cells; experiment: Effector T cell and NK cell proliferation and expansion in mice after a single subcutaneous injection (Example 9); format: in vivo, mouse; conditions: 0.3 mg/kg single s.c., C57/BL6 mice
Protocol: IL-2 variant Fc fusion proteins were administered to mice and their ability to preferentially proliferate and expand regulatory T cells (CD4+CD25+FoxP3+ T cells) over effector T cells and NK cells were determined in vivo.
Female C57/BL6 mice (7-week old) were received from Charles River Laboratory and acclimated in house for at least 7 days before the study. Vehicle (PBS), 0.3 mg/kg of each test compounds, or IL-2 benchmark compounds were subcutaneously administered to mice on day 0. Peripheral blood samples were collected into heparin-treated tubes on days 3, 5 and 7 post-treatment. Each group contained 6 mice and baseline blood was collected 2 days prior to the treatment (day −2). After red blood cell lysis, total viable mononuclear blood cells were counted by trypan blue dead cell exclusion method and proceeded to intracellular staining for immune cell phenotype and Ki67 proliferation markers using flow cytometric analysis. Cells were stained separately with two panels of antibodies as listed: 1) anti-mouse Foxp3-FITC, Ki67-PE, anti-mouse CD25-APC and anti-mouse CD4-Percpcy5.5 (1:50 dilution) for CD4+T-regulatory cells (Treg); 2) anti-mouse CD3-FITC, Ki67-PE, anti-mouse CD335-APC and anti-mouse CD8-Percpcy5.5 (1:50 dilution) for CD8+T and NK cells.

[2] = system: STAT5 phosphorylation in CD4+ Treg cells; experiment: STAT5 phosphorylation in CD4+ Treg cells, human PBMC assay by FACS; format: cell-based
Outline: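 Donor PBMCs were starved in serum-free buffer at 4° C for 1 h, then 2×10^5 cells were exposed to serial dilutions of IL-2 variants for 30 min at 37° C. After fixation and permeabilization they were stained for CD4, CD25, FOXP3 and pSTAT5. Read-out is percent pSTAT5+ cells among CD4+/Foxp3+/CD25^high (Treg) or CD4+/Foxp3−/CD25^low (Tconv) cells by flow cytometry.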

Treg cells = experiment: Treg pharmacodynamics in mice after repeated administration Q3D (Example 11); format: in vivo, mouse; conditions: 0.3 mg/kg s.c.
Protocol: Female Balb/C mice (7-week old) were acclimated in house for 5-7 days before the study. Vehicle (PBS), 0.3 mg/kg of P-0511, P-0512, P-0531, or Benchmark-1 compound were subcutaneously administered to mice (n=5/group) on days 0, 3, and 6. On days 3 and 9, three days after the first injection and multiple (3) injections, respectively, peripheral blood was collected. Based on earlier in vivo experiments, Treg cell activation, proliferation, and expansion were expected to peak on day 3, and thus three days post injection was selected for data collection and analysis. Changes in blood lymphocyte activation, proliferation, and expansion were measured by flow cytometry. P-0531 is the S125I equivalent of the wild type IL-2 fusion protein. The Benchmark-1 contains V91K mutation.

IL-2Rβ and γc complex = molecular target: T1, IL-2Rβ and γc complex (Homo sapiens, UniProt P14784+P31785); experiment: ELISA binding to IL-2Rβ and γc complex
T1 construct: IL-2R6-ECD (NP_000869); γc-ECD (NP_000197)
T1 sequence (P14784 27-240 limits assumed): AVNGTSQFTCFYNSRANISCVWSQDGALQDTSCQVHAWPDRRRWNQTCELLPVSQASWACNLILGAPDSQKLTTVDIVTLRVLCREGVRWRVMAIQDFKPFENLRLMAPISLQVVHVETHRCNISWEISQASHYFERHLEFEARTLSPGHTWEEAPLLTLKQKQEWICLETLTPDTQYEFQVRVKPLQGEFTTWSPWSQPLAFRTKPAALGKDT
T1 sequence (P31785 23-262 limits assumed): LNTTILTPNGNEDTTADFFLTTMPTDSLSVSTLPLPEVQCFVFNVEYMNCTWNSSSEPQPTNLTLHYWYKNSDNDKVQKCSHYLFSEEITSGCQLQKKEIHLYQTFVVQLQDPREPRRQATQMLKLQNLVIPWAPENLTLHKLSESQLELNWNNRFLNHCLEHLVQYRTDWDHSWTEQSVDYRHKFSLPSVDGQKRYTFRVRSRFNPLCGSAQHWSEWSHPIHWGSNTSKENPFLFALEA
Protocol: Briefly, non-covalent complex of IL-2R6-ECD (NP_000869) and γc-ECD (NP_000197) through heterodimeric Fc chains was coated onto the wells of Nunc Maxisorp 96-well microplates at 2 μg/well. After overnight incubation at 4° C. and blocking with superblock (ThermoFisher), 3-fold serial dilutions of IL-2 Fc fusion proteins starting at either 100 or 270 nM were added to each well at 100 Following a one-hour incubation at room temperature, biotin mouse anti-human IL-2 Ab (BD BioSciences) at 1 μg/ml was added to each well followed by incubation with HRP-Avidin (ThermoFisher) at 1 μg/ml for 1 hour. Wells were thoroughly aspirated and washed three times with PBS/0.05% Tween-20 following each step. Finally, 100 TMB substrate was added to each well; the plate was developed at room temperature in the dark for 10 minutes, and 100 of stop solution (2N Sulfuric acid, Ricca Chemical) was added. Absorbance was determined at 450 nm; curves were fit using Prism software (Graph Pad) and illustrated in FIG. 11E.

P-0511: IL-2 L19H/S125I/Q126E Fc fusion, SEQ ID NO: 213
Ki67 stimulation on CD8 T cells and NK cells in vivo (in words) [1]: mild Ki67 stimulation | expansion of CD4+ Tconv cells, CD8 T cells or NK cells in vivo [1]: No significant expansion | potency in ex vivo cell assay relative to P-0560 [2]: over 100 fold | % Treg over total CD4 T cells or over total lymphocytes (Treg cells; after three consecutive Q3D treatments): sustained at significantly high levels | Treg cell counts, fold changes relative to PBS and Treg/Tconv ratio (Treg cells; repeated dosing Q3D): superior capabilities to sustain Treg pool and maintain Treg selectivity | binding to IL-2 dimeric receptor complex, EC50 (IL-2Rβ and γc complex): did not show appreciable binding
